Test results reported in patent publication US20180192641A1, “Compositions and Methods for Preservation of Materials in the Amorphous State” (University of North Carolina Charlotte, priority 2014, published 2018).

Tests used:
[1] = moisture sorption (dynamic vapor sorption) and visual onset of crystallization in microwave-dried amorphous trehalose/salt samples at 61% RH; format: physicochemical
Description: A stock solution of 30.8 wt % trehalose (1.3 M), made in 1×TE buffer (1×Tris-EDTA buffer, pH 8.0, consisting of 10 mM Tris-HCl and 1 mM EDTA), was used to prepare solutions with varying amounts of phosphate salts (salt to trehalose molar ratio (R) is 1:4.8, 1:2 and 1:0.7). […] The end moisture content was measured below 0.105 gH2O/gdw which is known to produce a glass transition temperature higher than room temperature in the case of aqueous trehalose solutions. […] Specifically, in order to investigate moisture sorption in different trehalose/salt compositions at the 61% relative humidity, a closed environment with a stable relative humidity over the test duration was prepared. Supersaturated salt solutions of sodium bromide (prepared by following ASTM Protocol E 104-02) are capable of producing an environment with constant relative humidity of 61%. […] glass jars with rubber seals and clamps or Mason glass jars with screw caps are used as controlled humidity vessels (1 L, total height 159 mm, mouth Dia. 89 mm). The dynamic vapor sorption (DVS) method was used to monitor moisture sorption in the microwave-processed trehalose samples before and after crystallization (crystals were detected visually in samples). The moisture uptake in trehalose/salt samples were monitored to evaluate the effect of salts on end moisture content at time zero after microwave processing at 11% RH. Moisture sorption trends in samples over the experiment duration while held in the preservation jars (61% RH) were also evaluated. In this study, the gravimetric method was used to determine the dry weight of samples with different compositions (expressed in terms of mass of water per mass of solids). […] (below the crystallization temperature of Trehalose). The sample was then cooled in a desiccator containing phosphorus pentoxide (P2O5) which maintained the humidity near 0% RH. By recording the initial wet mass and the bake-out dry mass, the dry weight of each composition was obtained.

[2] = 37.5% RH; cited from earlier work
[3] = 25° C.; cited from earlier work
[4] = remained constant in RH environment of up to 92%; cited from earlier work

## C[N+](C)(C)CCO.O=P([O-])(O)O [pure choline dihydrogen phosphate, choline dihydrogen phosphate]
[1]; 61% RH
  hygroscopicity (moisture uptake): very hygroscopic
[1]; 61% RH, pure salt without trehalose
  crystallization observed: no crystallization

## OC[C@H]1O[C@H](O[C@H]2O[C@H](CO)[C@@H](O)[C@H](O)[C@H]2O)[C@H](O)[C@@H](O)[C@@H]1O [pure trehalose, trehalose]
[2]
  crystals on DSC thermograms: did not show any crystals
[3]
  RH at which isotherm exhibited a plateau (formation of trehalose dihydrate crystals): ≥ 44 % RH
[1]; 61% RH
  water absorbed to enable the formation of trehalose dihydrate: around 0.105 gH2O/g trehalose
[1]; 61% RH, level the moisture content fell to after crystallization (pure trehalose: during the following 18 days)
  moisture content level after crystallization: around 0.105 gH2O/gdw
[1]; storage at 61% RH after microwave drying at 11% RH
  time (day) of onset of sugar crystallization, observed visually: 1 days

## OC[C@H]1O[C@H](O[C@H]2O[C@H](CO)[C@@H](O)[C@H](O)[C@H]2O)[C@H](O)[C@@H](O)[C@@H]1O [trehalose dihydrate]
[4]
  moisture content of trehalose dihydrate: 9.54%
